The species named for one assay is Homo sapiens. Nature of the assay: Inhibition of ERK phosphorylation (unknown origin) incubated for 6 hrs by Western blot analysis based cell based assay. Background: Immunoblotting shows a protein as a band on a membrane.
Assay [1] has as its target Small ribosomal subunit protein eS6 (Homo sapiens) (UniProt P62753). Description: Inhibition of RPS6 phosphorylation in human HeLa cells assessed as Ser235/236 phosphorylation level at 5 uM incubated for 6 hrs. Type of assay: cell-based. Further details: scale not given: the % may be the effect or the level left.
For assay [2] the target is unchanged. Description: Inhibition of RPS6 phosphorylation in human HeLa cells assessed as Ser240/244 phosphorylation level at 5 uM incubated for 6 hrs. Type of assay: cell-based. Further details: scale not given: the % may be the effect or the level left.
The test system of assay [3] is FaDu. Description: Growth inhibition of human FaDu cells incubated for 72 hrs by cell-titer Glo luminescence assay. Type of assay: functional, cell-based.
The target of assay [4] is Small ribosomal subunit protein eS6 (Homo sapiens) (UniProt P62753). Nature of the assay: Inhibition of RPS6 phosphorylation (unknown origin) incubated for 6 hrs by Western blot analysis based cell based assay.
The subject of assay [5] is FaDu. Description: Growth inhibition of human FaDu cancer stem cells incubated for 72 hrs by cell-titer Glo luminescence assay. It counts as functional, cell-based.

Active and inactive are the calls of the source. No cut-off for these calls is given here.

With `Cc1cc(C)c(/C=C2\C(=O)Nc3ccc(-c4ccc(C=O)cc4)cc32)[nH]1`, the inhibition entry in the assay listed under Homo sapiens is “Active”.

With `Cc1cc(C)c(/C=C2\C(=O)Nc3ccc(-c4csc(C5CCNCC5)n4)cc32)[nH]1`, the Activity in assay [1] and in assay [2] was 76% throughout.

Consider `CCOC(=O)CCc1ccc(-c2nc(-c3ccc4c(c3)/C(=C/c3[nH]c(C)c(C(=O)NCCN(CC)CC)c3C)C(=O)N4)cs2)cc1`, for which, in the assay listed under Homo sapiens, the inhibition result is “Active”.

Compound `Cc1ccc(-c2nc(-c3ccc4c(c3)/C(=C/c3[nH]c(C)c(C(=O)N5CCN(C)CC5)c3C)C(=O)N4)cs2)cc1` had a half-maximal inhibitory concentration (IC50) in the assay with FaDu [3] of 23.7 µM.

Turning to `CCNC(=O)c1c(C)[nH]c(/C=C2\C(=O)Nc3ccc(-c4csc(-c5ccccc5)n4)cc32)c1C`, the inhibition entry (in assay [4]; in the assay listed under Homo sapiens) was “Active” throughout.

With `CCN(CC)CCNC(=O)c1c(C)[nH]c(/C=C2\C(=O)Nc3ccc(-c4n[nH]c5ccccc45)cc32)c1C`, the results for the Activity in assay [1] and in assay [2] were 4% and 26%, respectively.

As to `COc1cccnc1-c1ccc2c(c1)/C(=C/c1[nH]c(C)cc1C)C(=O)N2`, half-maximal inhibition in the assay on FaDu [5] (IC50) required 2.52 µM. The inhibition result in the assay filed under Homo sapiens was “Active”.

In general, IC50 refers to the concentration needed to halve the response being measured.

Values taken from ChEMBL document CHEMBL4742394, “3-(aryl or heteroaryl) methyleneindolin-2-one derivatives as inhibitors of cancer stem cell pathway kinases for the treatment of cancer” (2019).
